Assay in all cases: NCI-60 cell line screen, 48 h
Experiment [1] has as its system CCRF-CEM.
In experiment [2] the test system is OVCAR-3.
The test system of experiment [3] is UACC-257.
Experiment [4] relates to HCT-15.
Experiment [5] deals with K562.
In experiment [6] the test system is M14.
The test system of experiment [7] is BT-549.
Experiment [8] deals with ACHN.
Experiment [9] deals with SF-295.
The test system of experiment [10] is OVCAR-8.
The subject of experiment [11] is EKVX.
Experiment [12] has as its system SN12C.
Experiment [13] deals with RXF 393.
In experiment [14] the test system is NCI-H522.
For experiment [15], the system named is OVCAR-5.
Experiment [16] has as its system M19-MEL.
Experiment [17] relates to HOP-92.
For experiment [18], the system named is A498.
The test system of experiment [19] is UO-31.
The subject of experiment [20] is COLO 205.

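A five-concentration, 48-hour dose response in 96-well plates underlies each endpoint, interpolated linearly between surrounding concentrations. GI50 marks 50% less growth.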 Activity calls are given as the source filed them. Cut-off read from the data, not from the text of the source: active = GI50 up to about 1.1 µM and inactive = higher. Where only a bound is given, the exact number is not on record here.

As for `O=C1C(Cl)=C(Cl)C(=O)N1c1ccc(F)cc1` [FLUOROIMIDE], the GI50 was 2.75 µM (inactive) in experiment [1]; 17.5 µM (inactive) in experiment [2]; 36.1 µM (inactive) in experiment [3]; 16.2 µM in experiment [4]; 5.11 µM (inactive) in experiment [5]; 19.5 µM (inactive) in experiment [6]. For the same compound, the GI50 in [7] was 16.5 µM (inactive); in experiment [8], 18.2 µM (inactive); in [9], > 53.2 µM (inactive); in experiment [10], 21.1 µM (inactive); in experiment [11] it was 21.4 µM (inactive); in experiment [12] it was 19.1 µM (inactive). Besides, the GI50 in experiment [13] is 22.5 µM (inactive); in experiment [14], 3.81 µM (inactive); in experiment [15], 20.9 µM (inactive); in [16] it was 19.5 µM (inactive); in [17], 17.6 µM (inactive); in experiment [18], > 100 µM (inactive). Moreover, the GI50 in experiment [19] was 22 µM (inactive); in [20], 14.4 µM (inactive).
As for `CCSc1nc(N2CCCC2)s[s+]1.[O-][Cl+3]([O-])([O-])[O-]`, the GI50 is 0.764 µM (active) in [1]; 3.58 µM (inactive) in experiment [2]; 36.9 µM (inactive) in experiment [3]; 27.4 µM in experiment [4]; 1 µM (active) in experiment [5]; 25.4 µM (inactive) in experiment [6]. Besides, the GI50 is 33 µM (inactive) in experiment [7]; 54.3 µM (inactive) in [8]; 54.6 µM (inactive) in [9]; 39.3 µM (inactive) in experiment [10]; 67.3 µM (inactive) in experiment [11]; 46.1 µM (inactive) in [12]. Moreover, the GI50 in experiment [13] is 30.9 µM (inactive); in experiment [14], 0.346 µM (active); in experiment [15], > 100 µM (inactive); in experiment [16], 2.3 µM (inactive); in experiment [17], 64.7 µM (inactive); in [18], 6.75 µM (inactive). For the same compound, the values for the GI50 in experiment [19] and in experiment [20] were 42.1 µM (inactive) and 2.23 µM (inactive), respectively.
With `CCCCc1c2c(nc3c1CCC/C3=C\c1ccccc1)C(=O)C(CN(C)C)CC2` (stereo not given), the GI50 was 3.17 µM (inactive) in experiment [1]; 19.5 µM (inactive) in experiment [2]; 17 µM (inactive) in [3]; 8.97 µM in [4]; 6.89 µM (inactive) in experiment [5]; 17.4 µM (inactive) in [6]. Also, the GI50 was 4.32 µM (inactive) in [7]; 15.9 µM (inactive) in experiment [8]; 16.7 µM (inactive) in experiment [9]; 20.8 µM (inactive) in experiment [10]; 18.5 µM (inactive) in experiment [11]; 20.1 µM (inactive) in experiment [12]. The GI50 in experiment [13] is 16.3 µM (inactive); in experiment [14], 13.8 µM (inactive); in experiment [15], 18.2 µM (inactive); in experiment [16], 16.7 µM (inactive); in [17], 16.6 µM (inactive); in [18] it was 18.7 µM (inactive). The GI50 is 18.9 µM (inactive) in experiment [19] and 19.1 µM (inactive) in experiment [20].

(Values after ChEMBL document CHEMBL1201862, “PubChem BioAssay data set” (2004).)
